Assay results: ChEMBL document CHEMBL1134134, “Novel tricyclic benzothiazolo[2,3-c]thiadiazine antagonists of the platelet ADP receptor (P2Y(12))” (Bioorg Med Chem Lett, 2001)

Experiments:
Homo sapiens = organism: Homo sapiens; assay: Ability to inhibit platelet aggregation; type: functional, organism-based
P2Y purinoceptor 12 [1] = target: T1, P2Y purinoceptor 12 (Homo sapiens, UniProt Q9H244); assay: Compound was evaluated for its ability to inhibit human Purinergic receptor P2Y12 expressed in Xenopus oocyte
P2Y purinoceptor 12 [2] = target: T1, P2Y purinoceptor 12; assay: Ability to displace [3H]2-MeS-ADP from human Purinergic receptor P2Y12; type: tissue-based

T1 sequence (Q9H244 whole entry): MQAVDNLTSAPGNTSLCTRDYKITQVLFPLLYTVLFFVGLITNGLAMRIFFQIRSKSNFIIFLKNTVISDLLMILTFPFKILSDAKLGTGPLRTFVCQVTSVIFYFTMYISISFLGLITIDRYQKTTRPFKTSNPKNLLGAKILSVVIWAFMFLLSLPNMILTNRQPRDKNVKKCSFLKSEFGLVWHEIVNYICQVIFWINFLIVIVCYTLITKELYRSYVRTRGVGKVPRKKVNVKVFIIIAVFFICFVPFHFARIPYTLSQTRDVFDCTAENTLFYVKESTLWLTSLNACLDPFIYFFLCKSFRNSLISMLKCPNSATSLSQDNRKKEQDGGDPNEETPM

Row | SMILES | IC50 (Homo sapiens) [µM] | IC50 (P2Y purinoceptor 12 [1]) [nM] | IC50 (P2Y purinoceptor 12 [2]) [µM]
1 | CCOc1ccc2c(c1)SC1=NS(=O)(=O)C(C(=O)CS(=O)(=O)Nc3nc4ccc(OCC)cc4s3)=C(O)N12 | 0.18 | 40 | –
2 | O=C1/C(=C(\O)CS(=O)(=O)Nc2nc3ccc(Cl)cc3s2)S(=O)(=O)N=C2Sc3cc(Cl)ccc3N12 | 64 | – | 35
3 | COc1cccc2c1N1C(O)=CS(=O)(=O)N=C1S2 | > 120 | – | 77
4 | O=C1/C(=C(\O)CS(=O)(=O)Nc2nc3ccc(C4CCCCC4)cc3s2)S(=O)(=O)N=C2Sc3cc(C4CCCCC4)ccc3N12 | > 120 | – | > 120
5 | O=C1/C(=C(\O)CS(=O)(=O)Nc2nc3ccccc3s2)S(=O)(=O)N=C2Sc3ccccc3N12 | 26 | – | 21
6 | Cc1ccc2c(c1)SC1=NS(=O)(=O)C(C(=O)CS(=O)(=O)Nc3nc4ccc(C)cc4s3)=C(O)N12 | 9.5 | – | –
7 | O=S1(=O)C=C(O)N2C(=N1)Sc1cc(OC(F)(F)F)ccc12 | > 50 | – | > 120
8 | COc1ccc2c(c1)SC1=NS(=O)(=O)C(C(=O)CS(=O)(=O)Nc3nc4ccc(OC)cc4s3)=C(O)N12 | 1.5 | – | –
9 | O=C1/C(=C(\O)CS(=O)(=O)Nc2nc3ccc(Oc4ccccc4)cc3s2)S(=O)(=O)N=C2Sc3cc(Oc4ccccc4)ccc3N12 | > 24 | – | > 50
10 | O=C1/C(=C(\O)CS(=O)(=O)Nc2nc3ccc([N+](=O)[O-])cc3s2)S(=O)(=O)N=C2Sc3cc([N+](=O)[O-])ccc3N12 | 50 | – | 35
11 | O=C1/C(=C(\O)CS(=O)(=O)Nc2nc3ccc(-c4ccccc4)cc3s2)S(=O)(=O)N=C2Sc3cc(-c4ccccc4)ccc3N12 | > 24 | – | > 50
12 | CCOC(=O)c1ccc2c(c1)SC1=NS(=O)(=O)C(C(=O)CS(=O)(=O)Nc3nc4ccc(C(=O)OCC)cc4s3)=C(O)N12 | 0.8 | – | 1.8
13 | O=C1/C(=C(\O)CS(=O)(=O)Nc2nc3ccc(F)cc3s2)S(=O)(=O)N=C2Sc3cc(F)ccc3N12 | > 120 | – | 37
14 | CS(=O)(=O)c1ccc2c(c1)SC1=NS(=O)(=O)C(C(=O)CS(=O)(=O)Nc3nc4ccc(S(C)(=O)=O)cc4s3)=C(O)N12 | 2.9 | – | 1.1
